The test system of the experiment is plasma inosine. As to the kind of experiment: Plasma inosine after intraperitoneal injection in Lewis Rats (HPLC of plasma extract). The class given is in vivo. The note with it: intraperitoneal injection in aqueous carrier with ten percent DMSO, 30 mg twice per day, versus vehicle controls, plasma taken at specific times after administration. As to the method: A pharmaceutical composition for intraperitoneal injection is prepared for testing the compound (IA). An intraperitoneal injection solution containing the compound of Example 8 is dissolved in an aqueous carrier that contains ten percent DMSO.
The compound (IA) is intraperitoneally injected into Lewis Rats via the test composition of Example 21 to provide 30 mg of the compound (IA), with an injection given twice per day. Controls are used, which receive only the vehicle. At specific times after administration, the animals are sacrificed and plasma samples are prepared. The plasma is extracted with cold 0.5N HClO4 and neutralized with solid NH4 HCO3. After removal of perchlorate salts, the extract is subjected to HPLC on a reversed phase column (Spherisorb ODSI).
Compounds prepared as in Examples 10-20 are each made into a pharmaceutical formulation in accordance with the preparation of Example 21 and the resultant injectable solutions are tested in accordance with the procedure of Example 22.

For `Nc1nc2c(Cc3cccnc3)c[nH]c2c(=O)[nH]1` [compound (IA), 2-amino-7-(3-pyridinylmethyl)-3H,5H-pyrrolo[3,2-d]pyrimidin-4-one], the plasma inosine result was “significant increase”.

The values are drawn from patent US4985433A, “2-amino-7-(pyridinylmethyl)-3H,5H-pyrrolo[3,2-d]pyrimidin-4-ones and pharmaceutical uses and compositions containing the same” (BioCryst, Inc., priority 1989, dated 1991).
